# Measurements reported in patent US20240059712A1, “BIFUNCTIONAL COMPOUNDS AND PHARMACEUTICAL USES THEREOF” (priority 2022, published 2024).
# How the values were obtained:
# KRAS^G12D protein = target: T1, KRAS^G12D protein (Homo sapiens, UniProt P01116, G12D); assay: Protein degradation study (western blot) in Aspc-1 cells; type: cell-based; conditions: for inhibition at 0.005 µM / inhibition at 0.05 µM / inhibition at 0.001 µM: ASPC1, 24 h, 24 hours, read-out: Rate of degradation; for inhibition at 0.005 µM: Aspc-1 cells treated with 0.005 μM compound; for inhibition at 0.05 µM: Aspc-1 cells treated with 50 nM compound; for DC50: Aspc-1 cells, half-maximum degradation concentration, read-out: DC50 of compounds induced Ras G12D protein degradation; for inhibition at 0.001 µM: Aspc-1 cells treated with 1 nM compound
# T1 construct: host or cells: Aspc-1 (AsPC-1) cells
# Procedure: Aspc-1 (Cobioer, CBP60546) cells in exponential growth phase were inoculated on a 6-well cell culture plate (Corning, 3516) at density of 1E6/well; and cells in the plate were cultured in 37° C. incubator containing 5%-carbon dioxide. The next day, testing compounds were dissolved in DMSO (Sigma, RNBF5902) for the preparation of a 10-mM concentration stock solution. The stock solution was diluted with complete medium (RPMI-1640 supplemented with 10% fetal bovine serum, 1% penicillin-streptomycin), yielding working solutions of various concentrations. The plate, after the addition of compounds, was placed in a 5% carbon dioxide incubator, and incubated at 37° C. for 24 hours (final DMSO concentration was 0.1%). The plate was then removed from the incubator, and the cells were washed twice with precooled PBS (Gibco, 14190250), followed by addition of 80-μL RIPA lysis buffer (containing protease inhibitor (Invitrogen™, AM2696)) to each well. The adherent cells were scraped off with a cell scraper, and the cell lysate was transferred to a 1.5-mL centrifuge tube followed with a 30-minute incubation on ice. The lysate was then clarified with centrifugation at 14000 rpm for 10 min at 4° C. The supernatant was transferred into a new 1.5-mL centrifuge tube, and protein concentration was measured with BCA protein detection kit (Thermo Fisher, 23225). G12D protein level was assessed by western blot.
# A mixture of cell lysate (40 μL) and loading buffer (10 μL, 5×SDS (Beyotime, P0015L)) was denatured in a water-bath at 95° C. for 10 min. The denatured protein sample, at 30 μL/well, was loaded into corresponding well of 4-20% Bis-Tris gel (Kingsley, M00656). Protein samples were initially electrophoresed at 80 V for 30 minutes, followed by 120 V for 40 minutes, until the bromophenol blue strip ran to an appropriate position. After electrophoresis, iBlot2 (Life Technologies, IB21001) was used to transfer the separated samples onto PVDF film. The PVDF membrane was washed with double-distilled water and then blocked in TBST (Thermo Scientific, 28360) buffer containing 5% non-fat milk, for 2 hours. Blocked membrane was rinsed with tris-buffered saline tween-20 (Thermo Scientific, 28360, TBST) three times, 10 minutes each. Membrane was then incubated with 1:1000 diluted KRAS primary antibody (CST, cat #14429S) overnight at 4° C. Membrane was rinsed in a way described previously followed by 1 hour incubation of secondary antibody at room temperature. After washing the film for three times with TBST, ECL color developing solution was applied, and image was captured with Biorad Chemi Doc gel imager. The band gray value was quantified (Image Lab), and protein degradation level was calculated according to the following formula:
# Level of RAS protein expression=(RAS-compound/GAPDH)/(RAS-DMSO/GAPDH)
# Level of degradation (%)=(1−Rate of RAS protein expression)×100
# Symbols of −, +, ++, +++ indicate that the degradation level of Ras protein induced by testing compounds are […], 11 to 30%, 31 to 60% and greater than 60%, respectively.
# Half-maximum degradation concentrations (DC50s) of testing compounds were calculated using GraphPad Prism and their values were shown in Table 6. Symbols of […] represent DC50s equal or less than 10 nM, 11-50 nM, 51-100 nM, and 101-200 nM, respectively.
# Aspc-1 cells = assay: Cell proliferation study (Cell Titer Glo, 72 hours); type: cell-based; conditions: Homo sapiens, ASPC1, read-out: IC50, inhibitory effect on cellular proliferation
# Procedure: Aspc-1 (Cobioer, CBP60546) cells were grown in RPMI 1640 (Gibco, 61870127) supplemented with 10% fetal bovine serum (Gibco, 10099141), 1% penicillin-streptomycin (Gibco, 15070-063). Aspc-1 cells in exponential growth phase were seeded into 96-well plate (Corning, 3599) at density of 4×10^3/well. Cells were cultured overnight at 37° C. with 5% CO2. On the next day, cells were treated with compound at various concentrations for 72 hours in 37° C., 5% CO2 incubator (final DMSO concentration is 0.1%). After treatment, the cell plates were added 100 μL Cell Tier Glo (Promega, G7573) to every well and incubated at RT for 10 minutes. Cell growth status was measured with Cell Tier Glo (Promega, G7573) following manufacturer's directions. The inhibition curve was obtained with GraphPad 7.0 software using four-parameter equation.
# T1 sequence (P01116 1-188 isoform P01116-2 G12D): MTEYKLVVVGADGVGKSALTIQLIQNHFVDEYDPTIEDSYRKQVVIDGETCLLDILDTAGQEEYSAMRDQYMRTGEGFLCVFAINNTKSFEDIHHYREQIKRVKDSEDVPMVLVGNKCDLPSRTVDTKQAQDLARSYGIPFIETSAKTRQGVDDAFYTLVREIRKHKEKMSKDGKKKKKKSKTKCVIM
smiles,measurement,setting,value
C#Cc1c(F)ccc2cc(O)cc(-c3ncc4c(N5CC6CCC(C5)N6)nc(OCC5(CN6CCC7(CC6)CC(N6CCC(c8ccc9c(N%10CCC(=O)NC%10=O)nn(C)c9c8)CC6)C7)CC5)nc4c3F)c12 [Compound 1a],inhibition at 0.005 µM,KRAS^G12D protein,> 60%
same,inhibition at 0.05 µM,KRAS^G12D protein,> 60%
same,DC50,KRAS^G12D protein,< 10 nM
same,IC50,Aspc-1 cells,< 100 nM
C#Cc1c(F)ccc2cc(O)cc(-c3ncc4c(N5CC6CCC(C5)N6)nc(OCC5(CN6CCC7(CC6)CC(N6CCC(c8cc9c(cc8F)c(N8CCC(=O)NC8=O)nn9C)CC6)C7)CC5)nc4c3F)c12 [Compound 2a],inhibition at 0.005 µM,KRAS^G12D protein,> 60%
same,inhibition at 0.05 µM,KRAS^G12D protein,> 60%
same,DC50,KRAS^G12D protein,< 10 nM
same,IC50,Aspc-1 cells,< 100 nM
C#Cc1c(F)ccc2cc(O)cc(-c3ncc4c(N5CC6CCC(C5)N6)nc(OCC5(CN6CCC7(CC6)CC(N6CCC(c8ccc(NC9CCC(=O)NC9=O)cc8F)CC6)C7)CC5)nc4c3F)c12 (stereo not drawn) [Compound 12a],inhibition at 0.001 µM,KRAS^G12D protein,> 60%
same,inhibition at 0.005 µM,KRAS^G12D protein,> 60%
same,inhibition at 0.05 µM,KRAS^G12D protein,> 60%
same,DC50,KRAS^G12D protein,< 10 nM
same,IC50,Aspc-1 cells,< 100 nM
Nc1cc(Cl)c(C(F)(F)F)c(-c2ncc3c(N4CC5CCC(C4)N5)nc(OCC4(CN5CCC6(CC5)CC(N5CCC(c7ccc8c9c(cccc79)C(=O)N8C7CCC(=O)NC7=O)CC5)C6)CC4)nc3c2F)c1 (stereo not drawn) [Compound 13a],inhibition at 0.001 µM,KRAS^G12D protein,> 60%
same,inhibition at 0.005 µM,KRAS^G12D protein,> 60%
same,inhibition at 0.05 µM,KRAS^G12D protein,> 60%
same,DC50,KRAS^G12D protein,< 10 nM
same,IC50,Aspc-1 cells,< 100 nM
C#Cc1c(F)ccc2cccc(-c3ncc4c(N5CC6CCC(C5)N6)nc(OCC5(CN6CCC7(CC6)CC(N6CCC(c8ccc9c%10c(cccc8%10)C(=O)N9C8CCC(=O)NC8=O)CC6)C7)CC5)nc4c3F)c12 (stereo not drawn) [Compound 14a],inhibition at 0.001 µM,KRAS^G12D protein,> 60%
same,inhibition at 0.005 µM,KRAS^G12D protein,> 60%
same,inhibition at 0.05 µM,KRAS^G12D protein,> 60%
same,DC50,KRAS^G12D protein,< 10 nM
same,IC50,Aspc-1 cells,101 to 1000 nM
C#Cc1c(F)ccc2cccc(-c3ncc4c(N5CC6CCC(C5)N6)nc(OCC5(CN6CCC7(CC6)CC(N6CCC(c8ccc9c(C%10CCC(=O)NC%10=O)nn(C)c9c8)CC6)C7)CC5)nc4c3F)c12 (stereo not drawn) [Compound 16a],inhibition at 0.005 µM,KRAS^G12D protein,> 60%
same,inhibition at 0.05 µM,KRAS^G12D protein,> 60%
same,IC50,Aspc-1 cells,101 to 1000 nM
Cn1nc(C2CCC(=O)NC2=O)c2ccc(C3CCN(C4CC5(CCN(CC6(COc7nc(N8CC9CCC(C8)N9)c8cnc(-c9cc(N)cc(Cl)c9C(F)(F)F)c(F)c8n7)CC6)CC5)C4)CC3)cc21 (stereo not drawn) [Compound 17a],inhibition at 0.005 µM,KRAS^G12D protein,> 60%
same,inhibition at 0.05 µM,KRAS^G12D protein,> 60%
same,DC50,KRAS^G12D protein,< 10 nM
same,IC50,Aspc-1 cells,< 100 nM
Nc1cc(Cl)c(C(F)(F)F)c(-c2ncc3c(N4CC5CCC(C4)N5)nc(OCC4(CN5CCC6(CC5)CC(N5CCC(c7ccc(NC8CCC(=O)NC8=O)cc7F)CC5)C6)CC4)nc3c2F)c1 (stereo not drawn) [Compound 21a],inhibition at 0.005 µM,KRAS^G12D protein,31 to 60%
same,inhibition at 0.05 µM,KRAS^G12D protein,> 60%
same,DC50,KRAS^G12D protein,< 10 nM
same,IC50,Aspc-1 cells,< 100 nM
C#Cc1c(F)ccc2cc(O)cc(-c3ccc4c(N5CC6CCC(C5)N6)nc(OCC5(CN6CCC7(CC6)CC(N6CCC(c8ccc9c(C%10CCC(=O)NC%10=O)nn(C)c9c8)CC6)C7)CC5)nc4c3F)c12 (stereo not drawn) [Compound 23a],inhibition at 0.005 µM,KRAS^G12D protein,> 60%
same,inhibition at 0.05 µM,KRAS^G12D protein,> 60%
same,DC50,KRAS^G12D protein,< 10 nM
same,IC50,Aspc-1 cells,< 100 nM
C#Cc1c(F)ccc2cc(O)cc(-c3ncc4c(N5CC6CCC(C5)N6)nc(OCC5(CN6CCC7(CCC(C(=O)N8CCC(c9ccc%10c(C%11CCC(=O)NC%11=O)nn(C)c%10c9)CC8)CC7)CC6)CC5)nc4c3F)c12 (stereo not drawn) [Compound 24a],inhibition at 0.005 µM,KRAS^G12D protein,> 60%
same,inhibition at 0.05 µM,KRAS^G12D protein,31 to 60%
same,DC50,KRAS^G12D protein,< 10 nM
same,IC50,Aspc-1 cells,< 100 nM
C#Cc1c(F)ccc2cc(O)cc(-c3ncc4c(N5CC6CCC(C5)N6)nc(OCC5(CN6CCC7(CCC(CN8CCC(c9ccc%10c(C%11CCC(=O)NC%11=O)nn(C)c%10c9)CC8)CC7)CC6)CC5)nc4c3F)c12 (stereo not drawn) [Compound 26a],inhibition at 0.005 µM,KRAS^G12D protein,> 60%
same,inhibition at 0.05 µM,KRAS^G12D protein,11 to 30%
same,DC50,KRAS^G12D protein,< 10 nM
same,IC50,Aspc-1 cells,< 100 nM
C#Cc1c(F)ccc2cc(O)cc(-c3ncc4c(N5CC6CCC(C5)N6)nc(OCC5(CN6CCC7(CC6)CC(C(=O)N6CCC(c8ccc9c(C%10CCC(=O)NC%10=O)nn(C)c9c8)CC6)C7)CC5)nc4c3F)c12 (stereo not drawn) [Compound 28a],inhibition at 0.005 µM,KRAS^G12D protein,> 60%
same,inhibition at 0.05 µM,KRAS^G12D protein,> 60%
same,DC50,KRAS^G12D protein,< 10 nM
same,IC50,Aspc-1 cells,< 100 nM
C#Cc1c(F)ccc2cc(O)cc(-c3ncc4c(N5CC6CCC(C5)N6)nc(OCC5(CN6CCC7(CC6)CC(CN6CCC(c8ccc9c(C%10CCC(=O)NC%10=O)nn(C)c9c8)CC6)C7)CC5)nc4c3F)c12 (stereo not drawn) [Compound 29a],inhibition at 0.005 µM,KRAS^G12D protein,> 60%
same,inhibition at 0.05 µM,KRAS^G12D protein,11 to 30%
same,DC50,KRAS^G12D protein,< 10 nM
same,IC50,Aspc-1 cells,< 100 nM
C#Cc1c(F)ccc2cc(O)cc(-c3ncc4c(N5CC6CCC(C5)N6)nc(OCC5(CN6CCC(N7CC(CN8CCC(c9ccc%10c(C%11CCC(=O)NC%11=O)nn(C)c%10c9)CC8)C7)CC6)CC5)nc4c3F)c12 (stereo not drawn) [Compound 30a],inhibition at 0.005 µM,KRAS^G12D protein,> 60%
same,inhibition at 0.05 µM,KRAS^G12D protein,> 60%
same,DC50,KRAS^G12D protein,< 10 nM
same,IC50,Aspc-1 cells,< 100 nM
C#Cc1c(F)ccc2cc(O)cc(-c3ncc4c(N5CC6CCC(C5)N6)nc(OCC5(CN6CC7(CCC(N8CCC(c9ccc%10c(C%11CCC(=O)NC%11=O)nn(C)c%10c9)CC8)CC7)C6)CC5)nc4c3F)c12 (stereo not drawn) [Compound 31a],inhibition at 0.005 µM,KRAS^G12D protein,> 60%
same,inhibition at 0.05 µM,KRAS^G12D protein,> 60%
same,DC50,KRAS^G12D protein,< 10 nM
same,IC50,Aspc-1 cells,< 100 nM
C#Cc1c(F)ccc2cc(O)cc(-c3ncc4c(N5CC6CCC(C5)N6)nc(OCC5(CN6CC7(CCC(CN8CCC(c9ccc%10c(C%11CCC(=O)NC%11=O)nn(C)c%10c9)CC8)CC7)C6)CC5)nc4c3F)c12 (stereo not drawn) [Compound 32a],inhibition at 0.005 µM,KRAS^G12D protein,> 60%
same,inhibition at 0.05 µM,KRAS^G12D protein,31 to 60%
same,DC50,KRAS^G12D protein,< 10 nM
same,IC50,Aspc-1 cells,< 100 nM
C#Cc1c(F)ccc2cc(O)cc(-c3ncc4c(N5CC6CCC(C5)N6)nc(OCC5(CN6CCC7(CCC(N8CCC(c9ccc%10c(C%11CCC(=O)NC%11=O)nn(C)c%10c9)CC8)CC7)CC6)CC5)nc4c3F)c12 (stereo not drawn) [Compound 33a],inhibition at 0.005 µM,KRAS^G12D protein,> 60%
same,inhibition at 0.05 µM,KRAS^G12D protein,> 60%
same,DC50,KRAS^G12D protein,< 10 nM
same,IC50,Aspc-1 cells,< 100 nM
C#Cc1c(F)ccc2cc(O)cc(-c3ncc4c(N5CC6CCC(C5)N6)nc(OCC5(CN6CCC7(CC6)CC(N6CCC(c8cc9c(cc8F)c(N8CCC(=O)NC8=O)nn9C)C(F)(F)C6)C7)CC5)nc4c3F)c12 (stereo not drawn) [Compound 37a],DC50,KRAS^G12D protein,< 10 nM
same,IC50,Aspc-1 cells,< 100 nM
Cn1nc(N2CCC(=O)NC2=O)c2cc(F)c(C3CCN(C4CC5(CCN(CC6(COc7nc(N8CC9CCC(C8)N9)c8cc(Cl)c(-c9ccc(F)c%10sc(N)c(C#N)c9%10)c(F)c8n7)CC6)CC5)C4)CC3)cc21 [Compound 40a],inhibition at 0.005 µM,KRAS^G12D protein,> 60%
same,DC50,KRAS^G12D protein,< 10 nM
same,IC50,Aspc-1 cells,< 100 nM
